# From patent US20240025903A1, “Bicyclic Compounds and Uses Thereof for the Treatment of Diseases” (Athira Pharma, Inc., priority 2020, published 2024)
# Where two headings read alike, the source gives them in different places.
# How the values were obtained:
# In vivo pharmacokinetics = experiment: In vivo pharmacokinetics; design: species or system Sprague-Dawley rats; details: both sexes, Sprague-Dawley, rat; for Tmax: plasma; for AUC: dose-corrected plasma AUC; for Cmax: dose-corrected plasma Cmax
# Experimental: Administration of exemplary compounds by selected routes followed by blood collection and compound quantification in plasma was used to determine the pharmacokinetic (PK) profile of the compounds. Compounds were administered to mixed-sex Sprague-Dawley rats of at least 250 grams by dissolving the test compound in DMSO and then diluting the compound into an appropriate vehicle, either saline or saline and poly-ethylene glycol. Dosing was accomplished by either tail vein puncture (IV) or oral gavage (PO), and animals were administered compound according to their weight at 1 mL/kg. At selected intervals following administration (10, 20, 40, 60, 120, and 360 minutes), blood was collected by tail vein blood draw. Whole blood was then processed by centrifugation to produce plasma. Compound content in plasma samples was quantified by LC-MS/MS and compared to an internal standard and standard curves to determine concentration accurately. Plasma concentrations were then averaged for each time point and plotted as a function of time. Area under the curve was calculated by integration of the curve, Cmax was the highest concentration achieved in plasma, and Tmax was determined by the timing of Cmax.
# [1] = In vivo tissue distribution; design: species or system Sprague-dawley rats; details: rat
# Experimental: The rate of distribution to target tissues is an important feature of therapeutic molecules. Tissue distribution of exemplary compounds was performed in mixed-sex Sprague-dawley rats. Test compounds were delivered via tail vein injection (IV) and tissues were collected at Tmax (10 minutes post administration). Animals were deeply anesthetized with isoflurane and whole blood was collected from the right atrium and processed by centrifugation to produce plasma. Animals were then fully perfused with PBS administered to the left ventricle to prevent blood contamination of tissues.
# Tissues were collected and homogenized, and compound content in the target tissue was quantified by LC-MS/MS. Tissue distribution rates were determined by dividing the tissue concentration of compound by the plasma concentration and multiplying by 100.
# [2] = tested on: scopolamine-induced spatial memory deficit in rats; experiment: Scopolamine-induced spatial memory deficit in the Morris water maze (compound 1a); format: in vivo; details: rat, scopolamine 2 mg/kg IP, escape latency over 5 days, post-test p-value
# Experimental: Exemplary compound 1a was evaluated for its ability to reverse chemically-induced spatial memory deficits in rats in the Morris water maze. The water maze consists of a large round tank (diameter 1.5 m) filled with 23-26° C. water to a depth of −30 cm and the water was clouded with white paint. A round platform was fixed such that it rested 2-3 cm below the surface of the water. High-contrast visual cues were placed around the tank to aid spatial orientation of test animals. Testing consisted of placing an animal into the water facing the tank wall at one of three randomly assigned starting locations and allowing the animal to swim and search for the hidden platform for up to 90 seconds. The time taken for the animal to locate the platform was recorded as the escape latency. Animals were tested 5 times per day with a 30 second rest period between trials. Testing was completed for a total of 5 consecutive days.
# Animals were divided into groups (N=12 per group) depending on treatment. Control animals received only empty vehicle. Scopolamine groups received 2 mg/kg scopolamine dissolved in sterile saline by intraperitoneal (IP) injection 30 minutes prior to testing. Test compound groups received test compound at various concentrations by oral gavage (PO) dissolved in 78% sterile saline, 20% polyethylene glycol (PEG-400), and 2% DMSO 40 minutes prior to testing. Escape latencies were recorded for each animal for 5 trials each day for 5 consecutive days. Changes in escape latency curves were statistically analyzed by 2-way ANOVA with Bonferoni post-test.
smiles,measurement,setting,value
CCC(C)CN1CC2N(C(=O)c3ccc(C(F)(F)F)cc3)CCC(=O)N2[C@@H](C)C1=O (stereo partly shown) [Compound 1a],Tmax,"In vivo pharmacokinetics; IV (tail vein), read-out: TMAX IV",< 30 min
same,Tmax,"In vivo pharmacokinetics; PO (oral gavage), read-out: TMAX PO",30 to 60 min
same,AUC,"In vivo pharmacokinetics; IV (tail vein), read-out: AUC IV",100 to 999 ng·h/mL
same,Cmax,"In vivo pharmacokinetics; IV (tail vein), read-out: CMAX IV",1000 to 3000 ng/mL
same,AUC,"In vivo pharmacokinetics; PO (oral gavage), read-out: AUC PO",100 to 999 ng·h/mL
same,Cmax,"In vivo pharmacokinetics; PO (oral gavage), read-out: CMAX PO",1 to 100 ng/mL
same,Tissue Distribution (% Plasma exposure at 10 min post IV dose) Brain,[1]; brain,++ (++ indicates distribution between 5 and 39%)
same,Tissue Distribution (% Plasma exposure at 10 min post IV dose) Cerebellum,[1]; cerebellum,++ (++ indicates distribution between 5 and 39%)
same,Tissue Distribution (% Plasma exposure at 10 min post IV dose) Cortex,[1]; cortex,++ (++ indicates distribution between 5 and 39%)
same,Tissue Distribution (% Plasma exposure at 10 min post IV dose) Hippocampus,[1]; hippocampus,++ (++ indicates distribution between 5 and 39%)
same,Cognitive Improvement,[2]; 0.5 mg/kg PO,+ (+ indicates post-test p-value between 0.06 and 0.05)
same,Cognitive Improvement,[2]; 2 mg/kg PO,− (− indicates post-test p-value above 0.06)
same,Cognitive Improvement,[2]; 8 mg/kg PO,− (− indicates post-test p-value above 0.06)
